Measurements as given in patent US20250236614A1, “BICYCLIC TETRAHYDROAZEPINE DERIVATIVES” (Hoffmann-La Roche Inc., priority 2022, published 2025).

Columns and labels:
[1] = biological target: DGK α kinase (Homo sapiens, UniProt P23743); experiment: In vitro DGK inhibition assay (ADP Glo) run by Reaction Biology Corp., DGK alpha; type: biochemical; details: isomer A, 2 nM kinase, 50 μM ATP, 500 uM DLG, 10-dose, 3-fold dilution starting at 1 μM, read-out: DGKalpha IC50
Experimental: DGK α and ζ kinase use ATP to phosphorylate the substrate 1,2-dilauroyl-sn-glycerol (DLG). ATP is converted to ADP as a result of this enzymatic reaction.
After the kinase reaction, an ATP-depletion reagent is added to terminate the kinase reaction and deplete any remaining ATP, leaving only ADP. Second, a detection reagent is added to simultaneously convert ADP to ATP and allow the newly synthesized ATP to be converted to light using a coupled luciferase/luciferin reaction.
DGK α and ζ kinase ADP Glo assays were ran by Reaction Biology Corp., 1 Great Valley Parkway, Suite 2, Malverm, 19355, PA, USA. Information provided by the service provider are the following: DGK α and ζ kinases were used at 2 nM final concentration. Reactions were carried out at 50 μM ATP. 500 uM of the substrate DLG (Dilauroyl-sn-glycerol) was used. Compounds were received at 10 mM DMSO stock solution and were tested in 10-dose IC50 duplicate with 3-fold serial dilution starting at 1 μM. A control compound, Calphostin C, was tested in 10-dose IC50 with 3-fold serial dilution starting at 100 μM.

[2] = system: MV-3 RFP cells; experiment: T-cell TCB MV3 killing assay; type: cell-based, human; details: isomer A; for EC50: primary human T-cells + MCSP-TCB on MV-3 RFP cells, imaging over 120 hours, read-out: MSCP TCB killing MV-3 cells 5 d EC50; for Emax: Homo sapiens, MV-3, 120 h, read-out: MSCP TCB killing MV-3 cells 5 d Emax (%)
Experimental: All culturing steps are executed at 5% CO2, 37° C. and 95% humidity.
MV-3 RFP cells are cultured in MV-3 medium (DMEM+10% FBS, 1× PenStrep and 0.5 μg/mL Puromycin) for at least 3 weeks. Cultured MV-3 cells at 80% confluency are washed once with PBS−− and trypsinized until detached. Cells are then counted and resuspended to 1*10^5 cells/mL in T-cell medium (RPMI 1640+5% human serum+1 mM Sodium Pyruvate+50 μM 2-mercaptoethanol and 1× Pen-Strep). Cells are seeded with 100 μL/well into a 96-well plate (TTP, #92696), and placed for 40 minutes without moving at room temperature in order to achieve evenly distributed attachment of cells. Plates are then incubated until further use.
On the next day, expanded primary human T-cells are thawed and resuspended in T-cell medium to 4*10^6 cells/mL. For 3 hours, they are cultured in a 6-well plate with 6 mL per well at maximum. After culturing the T-cells, they are filtered through a cell strainer (Miltenyi Biotech, #130-041-407), counted again, and cell concentration is adjusted to 2*10^6 cells/mL.
MCSP-TCB or PBS are pre-diluted in T-cell medium (concentration depending on T-cell donor), 4 times more concentrated than the end-concentration. 60 μL/well of pre-dilutions are then distributed into a round bottom plate (Costar, #3799) according to plate layout. Compounds are added in a 9 pt dose response with the Tecan D300e Digital Dispenser, as well 4 times more concentrated than the end-concentration. DMSO concentration of all wells is adjusted to 0.8%, resulting in 0.2% as final concentration.
60 μL per well of T-cell suspension are added to the prepared round bottom plate and resuspended with a manual multichannel. 100 μL/well of the resuspended T-cell suspension including treatments are then transferred cautiously to the over-night cultured MV-3 cells according to plate layout. 100 μL T-cell medium only is added to the outer MV-3 wells only. Final compound DR is starting at 20 μM with a dilution factor of 3.333. Final TCB concentration is between […] and was determined for each T-cell donor individually by running TCB titrations. For each donor, a TCB concentration was chosen which corresponds to 10-20% of MV3 baseline cell killing in the absence of compound treatment. Positive control is the reference compound A1 which is added in a DR, as well as additional wells with only 20 μM. 20 μM of reference compound A1 represent the positive stimulator control, TCB only (DMSO wells) the neutral control.
After transfer of T-cells with treatment pre-dilutions, MV-3 cells are imaged by time-lapse microscopy using IncucyteZOOM™ (Essen BioScience, MI, USA). Imaging is performed every 3 hours for a total of 120 hours (10× objective, phase and red image channels, acquisition time 400 ms, Green/Red 4614 optical module). RFP object count per well is analysed in the IncucyteZOOM™ Software (Version 2019B Rev2) with a mask that was previously created and optimized for MV-3 cells. Raw data is exported as object count/well and values are normalized as % TCL compared to wells with MV-3 only, representing 100% growth and therefore 0% TCL.
Calculated 00 TCL values are analysed in Genedata Screener using Roche Normalization PCT_POS_CTRL with MCSP-TCB only set as Neutral Control and 20 μM of the reference compound A1 set as Stimulator Control/100%.
Induced TCL by compounds without TCB treatment or toxicity (observed in the PBS condition) were be flagged.

[3] = 20 μM reference compound A1 = 100%, MCSP-TCB only neutral control

Sequence of DGK α kinase (P23743 whole entry): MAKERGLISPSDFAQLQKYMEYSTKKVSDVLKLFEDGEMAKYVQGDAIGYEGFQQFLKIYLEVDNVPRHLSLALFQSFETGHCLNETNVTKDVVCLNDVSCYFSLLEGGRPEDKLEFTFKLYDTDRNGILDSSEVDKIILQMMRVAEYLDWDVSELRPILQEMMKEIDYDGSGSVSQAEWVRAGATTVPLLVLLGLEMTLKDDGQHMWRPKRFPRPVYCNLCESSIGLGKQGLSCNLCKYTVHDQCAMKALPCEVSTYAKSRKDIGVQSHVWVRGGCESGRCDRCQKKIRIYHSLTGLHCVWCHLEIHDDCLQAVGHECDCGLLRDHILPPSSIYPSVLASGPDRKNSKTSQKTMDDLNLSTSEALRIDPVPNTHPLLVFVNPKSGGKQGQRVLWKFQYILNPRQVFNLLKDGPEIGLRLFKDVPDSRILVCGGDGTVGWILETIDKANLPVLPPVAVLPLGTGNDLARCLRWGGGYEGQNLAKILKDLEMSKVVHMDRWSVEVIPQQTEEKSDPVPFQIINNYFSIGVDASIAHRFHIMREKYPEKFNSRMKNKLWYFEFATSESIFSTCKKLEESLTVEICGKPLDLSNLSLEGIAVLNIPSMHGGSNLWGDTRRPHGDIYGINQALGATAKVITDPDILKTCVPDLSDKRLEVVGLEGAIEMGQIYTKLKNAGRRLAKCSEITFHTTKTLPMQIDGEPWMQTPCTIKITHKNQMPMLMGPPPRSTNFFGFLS

Compound | IC50 [1] [nM] | MSCP TCB killing MV-3 cells 5 d Emax (%) [2, 3] [%] | EC50 [2] [nM] | Emax [2, 3] [%]
2-methyl-2-[5-[(3S)-3-amino-5,5,7-trifluoro-2-oxo-1-[[4-(trifluoromethoxy)phenyl]methyl]-3,4-dihydro-1-benzazepin-8-yl]-1,3,4-oxadiazol-2-yl]propanenitrile and 2-methyl-2-[5-[(3R)-3-amino-5,5,7-trifluoro-2-oxo-1-[[4-(trifluoromethoxy)phenyl]methyl]-3,4-dihydro-1-benzazepin-8-yl]-1,3,4-oxadiazol-2-yl]propanenitrile [Example 2] | 10.5 | 93 | 43 | –
CC(C)(c1nnc(-c2cc3c(cc2F)C(F)(F)CC(N)C(=O)N3Cc2ccc(Oc3ccccc3)cc2)o1)S(C)(=O)=O (racemic) [Example 5, (3S)-3-amino-5,5,7-trifluoro-8-[5-(1-methyl-1-methylsulfonyl-ethyl)-1,3,4-oxadiazol-2-yl]-1-[(4-phenoxyphenyl)methyl]-3,4-dihydro-1-benzazepin-2-one and (3R)-3-amino-5,5,7-trifluoro-8-[5-(1-methyl-1-methylsulfonyl-ethyl)-1,3,4-oxadiazol-2-yl]-1-[(4-phenoxyphenyl)methyl]-3,4-dihydro-1-benzazepin-2-one] | 124 | – | 372 | 130
COC(F)(c1nnc(-c2cc3c(cc2F)C(F)(F)C[C@H](N)C(=O)N3Cc2ccc(OC(F)(F)F)cc2)o1)C(F)(F)F (single isomer, unassigned) [Example 4] | – | – | 69 | 94
CC(C)(c1nnc(-c2cc3c(cc2F)C(F)(F)C[C@@H](N)C(=O)N3Cc2ccc(-c3ccc(C(F)(F)F)cn3)cc2)o1)S(C)(=O)=O (single isomer, unassigned) [Example 8] | – | – | – | 100
N[C@@H]1CC(F)(F)c2cc(F)c(-c3nnc(N4CCCC4)o3)cc2N(Cc2ccc(-c3noc(C(F)(F)F)n3)cc2)C1=O (single isomer, unassigned) [Example 14] | – | – | – | 113
CC(C)(c1nnc(-c2cc3c(cc2F)C(F)(F)C[C@@H](N)C(=O)N3Cc2ccc(-c3noc(C(F)(F)F)n3)cc2)o1)S(C)(=O)=O (single isomer, unassigned) [Example 16] | – | – | – | 84
N[C@@H]1CC(F)(F)c2cc(F)c(-c3nnc(N4CCOC5(CC5)C4)o3)cc2N(Cc2ccc(-c3noc(C(F)(F)F)n3)cc2)C1=O (single isomer, unassigned) [Example 17] | – | – | – | 105
CC(C)(C#N)c1nnc(-c2cc3c(cc2F)C(F)(F)C[C@@H](N)C(=O)N3Cc2ccc(-c3ccc(OC(F)F)cn3)cc2)o1 (single isomer, unassigned) [Example 41] | – | – | – | 98

Second part, led by results:

IC50 [1] [nM] | Compound | MSCP TCB killing MV-3 cells 5 d Emax (%) [2, 3] [%] | EC50 [2] [nM] | Emax [2, 3] [%]
8.2 | CC(C)(C#N)c1nnc(-c2cc3c(cc2F)C(F)(F)CC(N)C(=O)N3Cc2ccc(-n3cc(C(F)(F)F)cn3)cc2)o1 (racemic) [Example 33, 2-[5-[(3S)-3-amino-5,5,7-trifluoro-2-oxo-1-[[4-[4-(trifluoromethyl)pyrazol-1-yl]phenyl]methyl]-3,4-dihydro-1-benzazepin-8-yl]-1,3,4-oxadiazol-2-yl]-2-methyl-propanenitrile and 2-[5-[(3R)-3-amino-5,5,7-trifluoro-2-oxo-1-[[4-[4-(trifluoromethyl)pyrazol-1-yl]phenyl]methyl]-3,4-dihydro-1-benzazepin-8-yl]-1,3,4-oxadiazol-2-yl]-2-methyl-propanenitrile] | – | – | –
70.3 | CC(C)(C)c1nnc(-c2cc3c(cc2F)C(F)(F)C[C@@H](N)C(=O)N3Cc2ccc(OC3CCCC3)cc2)o1 (single isomer, unassigned) [Example 7] | – | – | –
43.6 | COc1ccc(-c2ccc(CN3C(=O)[C@H](N)CC(F)(F)c4cc(F)c(-c5nnc(C(C)(C)C#N)o5)cc43)cc2)cc1 (single isomer, unassigned) [Example 9] | – | – | 92
93.1 | COc1ccc(-c2ccc(CN3C(=O)[C@H](N)CC(F)(F)c4cc(F)c(-c5nnc(C(C)(C)S(C)(=O)=O)o5)cc43)cc2)cc1 (single isomer, unassigned) [Example 10] | – | – | –
108 | CC(C)(C#N)c1nnc(-c2cc3c(cc2F)C(F)(F)C[C@@H](N)C(=O)N3Cc2ccc(-c3ccc(C(F)(F)F)cn3)cc2)o1 (single isomer, unassigned) [Example 12] | – | – | 103
46.2 | CC(F)(F)c1ccc(-c2ccc(CN3C(=O)[C@H](N)CC(F)(F)c4cc(F)c(-c5nnc(C(C)(C)C#N)o5)cc43)cc2)nc1 (single isomer, unassigned) [Example 37] | – | – | –
